Results reported in ChEMBL document CHEMBL3045767, “Synthesis of novel 2-[4-(4-substitutedbenzamido/phenylacetamido)phenyl]benzothiazoles as antimicrobial agents” (2012).
Values after ≈ are worked out from the molar mass of the structure shown.

Experiments:
Assay type in all cases: functional
Candida albicans [1] = assay: Antifungal activity against Candida albicans
Staphylococcus aureus [2] = assay: Antibacterial activity against Staphylococcus aureus
Staphylococcus aureus [3] = assay: Antibacterial activity against methicillin-resistant Staphylococcus aureus after 24 hr by CLSI broth microdilution method
Pseudomonas aeruginosa [4] = assay: Antibacterial activity against Pseudomonas aeruginosa ATCC […] after 24 hr by CLSI broth microdilution method
Bacillus subtilis [5] = assay: Antibacterial activity against Bacillus subtilis ATCC 6633 after 24 hr by CLSI broth microdilution method
Klebsiella pneumoniae [6] = assay: Antibacterial activity against Klebsiella pneumoniae RSKK 574 after 24 hr by CLSI broth microdilution method
Klebsiella pneumoniae [7] = assay: Antibacterial activity against Klebsiella pneumoniae producing extended spectrum beta lactamase enzyme after 24 hr by CLSI broth microdilution method
Escherichia coli [8] = assay: Antibacterial activity against Escherichia coli producing extended spectrum beta lactamase enzyme after 24 hr by CLSI broth microdilution method
Staphylococcus aureus [9] = assay: Antibacterial activity against Staphylococcus aureus ATCC 25923 after 24 hr by CLSI broth microdilution method
Escherichia coli [10] = assay: Antibacterial activity against Escherichia coli ATCC 25922 after 24 hr by CLSI broth microdilution method
Pseudomonas aeruginosa [11] = assay: Antibacterial activity against gentamicin-resistant Pseudomonas aeruginosa after 24 hr by CLSI broth microdilution method
Candida albicans [12] = assay: Antifungal activity against Candida albicans ATCC 10231 after 48 hr by CLSI broth microdilution method; conditions: ATCC 10231, 48 h
Bacillus subtilis [13] = assay: Antibacterial activity against ceftriaxon-resistant Bacillus subtilis after 24 hr by CLSI broth microdilution method
Pseudomonas aeruginosa [14] = assay: Ratio of ofloxacin MIC to compound MIC for gentamicin-resistant Pseudomonas aeruginosa
Pseudomonas aeruginosa [15] = assay: Ratio of gentamycin sulfate MIC to compound MIC for gentamicin-resistant Pseudomonas aeruginosa

Molecule | MIC (Candida albicans [1]) [µg/mL] | MIC (Staphylococcus aureus [2]) [µg/mL] | MIC (Staphylococcus aureus [3]) [µg/mL] | MIC (Pseudomonas aeruginosa [4]; ATCC 25853, 24 h) [µg/mL] | MIC (Bacillus subtilis [5]; ATCC 6633, 24 h) [µg/mL] | MIC (Klebsiella pneumoniae [6]; RSKK 574, 24 h) [µg/mL] | MIC (Klebsiella pneumoniae [7]) [µg/mL] | MIC (Escherichia coli [8]) [µg/mL] | MIC (Staphylococcus aureus [9]; ATCC 25923, 24 h) [µg/mL] | MIC (Escherichia coli [10]; ATCC 25922, 24 h) [µg/mL] | MIC (Pseudomonas aeruginosa [11]) [µg/mL] | MIC (Candida albicans [12]) [µg/mL] | MIC (Bacillus subtilis [13]) [µg/mL] | MIC (Pseudomonas aeruginosa [4]) [µg/mL] | MIC (Bacillus subtilis [5]) [µg/mL] | MIC (Klebsiella pneumoniae [6]) [µg/mL] | MIC (Staphylococcus aureus [9]) [µg/mL] | MIC (Escherichia coli [10]) [µg/mL] | Ratio (Pseudomonas aeruginosa [14]) | Ratio (Pseudomonas aeruginosa [15])
Clc1ccc(OCc2nc3ccccc3s2)cc1 | 3.12 (≈ 11.3 µM) | – | – | – | – | – | – | – | – | – | – | – | – | – | – | – | – | – | – | –
c1ccc(OCc2nc3ccccc3s2)cc1 [2-(PHENOXYMETHYL)BENZOTHIAZOLE] | 3.12 (≈ 12.9 µM) | 3.12 (≈ 12.9 µM) | – | – | – | – | – | – | – | – | – | – | – | – | – | – | – | – | – | –
O=C(Nc1ccc(-c2nc3ccccc3s2)cc1)c1ccc([N+](=O)[O-])cc1 | – | – | 12.5 (≈ 33.3 µM) | 25 (≈ 66.6 µM) | 50 (≈ 133 µM) | 50 (≈ 133 µM) | 50 (≈ 133 µM) | 50 (≈ 133 µM) | 50 (≈ 133 µM) | 25 (≈ 66.6 µM) | 25 (≈ 66.6 µM) | 12.5 (≈ 33.3 µM) | 50 (≈ 133 µM) | – | – | – | – | – | – | –
O=C(Cc1ccc(Br)cc1)Nc1ccc(-c2nc3ccccc3s2)cc1 | – | – | 25 (≈ 59.1 µM) | 12.5 (≈ 29.5 µM) | 50 (≈ 118 µM) | 50 (≈ 118 µM) | 50 (≈ 118 µM) | 50 (≈ 118 µM) | 50 (≈ 118 µM) | 25 (≈ 59.1 µM) | 25 (≈ 59.1 µM) | 12.5 (≈ 29.5 µM) | 50 (≈ 118 µM) | – | – | – | – | – | – | –
CO[C@H]1/C=C/O[C@@]2(C)Oc3c(C)c(O)c4c(O)c(c(/C=N/N5CCN(C)CC5)c(O)c4c3C2=O)NC(=O)/C(C)=C\C=C\[C@H](C)[C@H](O)[C@@H](C)[C@@H](O)[C@@H](C)[C@H](OC(C)=O)[C@@H]1C [RIFAMPIN] | – | – | 1.56 (≈ 1.9 µM) | – | 0.19 (≈ 0.231 µM) | – | – | – | 0.0225 (≈ 0.0273 µM) | – | – | – | 3.12 (≈ 3.8 µM) | – | – | – | – | – | – | –
O=C(Nc1ccc(-c2nc3ccccc3s2)cc1)c1ccc(Cl)cc1 | – | – | 12.5 (≈ 34.3 µM) | 25 (≈ 68.5 µM) | 50 (≈ 137 µM) | 50 (≈ 137 µM) | 25 (≈ 68.5 µM) | 50 (≈ 137 µM) | 50 (≈ 137 µM) | 50 (≈ 137 µM) | 25 (≈ 68.5 µM) | 25 (≈ 68.5 µM) | 50 (≈ 137 µM) | – | – | – | – | – | – | –
c1ccc2sc(CCC3CCCCC3)nc2c1 | 3.12 (≈ 12.7 µM) | – | – | – | – | – | – | – | – | – | – | – | – | – | – | – | – | – | – | –
CCc1ccc(C(=O)Nc2ccc(-c3nc4ccccc4s3)cc2)cc1 | – | – | 6.25 (≈ 17.4 µM) | 25 (≈ 69.7 µM) | 50 (≈ 139 µM) | 25 (≈ 69.7 µM) | 50 (≈ 139 µM) | 50 (≈ 139 µM) | 50 (≈ 139 µM) | 25 (≈ 69.7 µM) | 25 (≈ 69.7 µM) | 12.5 (≈ 34.9 µM) | 50 (≈ 139 µM) | – | – | – | – | – | – | –
C[C@@H]1[C@H](O)[C@@H](C)/C=C/C=C/C=C/C=C/C=C/C=C/C=C/[C@H](O[C@@H]2O[C@H](C)[C@@H](O)[C@H](N)[C@@H]2O)C[C@@H]2O[C@](O)(C[C@@H](O)C[C@@H](O)[C@H](O)CC[C@@H](O)C[C@@H](O)CC(=O)O[C@H]1C)C[C@H](O)[C@H]2C(=O)O [AMPHOTERICIN B] | – | – | – | – | – | – | – | – | – | – | – | 0.78 (≈ 0.844 µM) | – | – | – | – | – | – | – | –
CC1COc2c(N3CCN(C)CC3)c(F)cc3c(=O)c(C(=O)O)cn1c23 (stereo not given) [OFLOXACIN] | – | – | 1.56 (≈ 4.32 µM) | 6.25 (≈ 17.3 µM) | 0.19 (≈ 0.526 µM) | 0.19 (≈ 0.526 µM) | 3.12 (≈ 8.65 µM) | 6.25 (≈ 17.3 µM) | 0.19 (≈ 0.526 µM) | 0.19 (≈ 0.526 µM) | 50 (≈ 138 µM) | – | 3.12 (≈ 8.65 µM) | – | – | – | – | – | – | –
O=C(Cc1ccc(Cl)cc1)Nc1ccc(-c2nc3ccccc3s2)cc1 | – | – | 50 (≈ 132 µM) | 25 (≈ 66 µM) | 50 (≈ 132 µM) | 50 (≈ 132 µM) | 50 (≈ 132 µM) | 50 (≈ 132 µM) | 50 (≈ 132 µM) | 50 (≈ 132 µM) | 25 (≈ 66 µM) | 25 (≈ 66 µM) | 50 (≈ 132 µM) | – | – | – | – | – | – | –
O=C(Nc1ccc(-c2nc3ccccc3s2)cc1)c1ccc(F)cc1 | – | – | 25 (≈ 71.8 µM) | 25 (≈ 71.8 µM) | 50 (≈ 144 µM) | 25 (≈ 71.8 µM) | 50 (≈ 144 µM) | 50 (≈ 144 µM) | 50 (≈ 144 µM) | 50 (≈ 144 µM) | 25 (≈ 71.8 µM) | 25 (≈ 71.8 µM) | 50 (≈ 144 µM) | – | – | – | – | – | – | –
Cc1ccc(CC(=O)Nc2ccc(-c3nc4ccccc4s3)cc2)cc1 | – | – | 25 (≈ 69.7 µM) | 25 (≈ 69.7 µM) | 50 (≈ 139 µM) | 25 (≈ 69.7 µM) | 50 (≈ 139 µM) | 50 (≈ 139 µM) | 50 (≈ 139 µM) | 50 (≈ 139 µM) | 25 (≈ 69.7 µM) | 25 (≈ 69.7 µM) | 50 (≈ 139 µM) | – | – | – | – | – | – | –
c1ccc(CCc2nc3ccccc3s2)cc1 [2-PHENETHYLBENZO[D]THIAZOLE] | 3.12 (≈ 13 µM) | – | – | – | – | – | – | – | – | – | – | – | – | – | – | – | – | – | – | –
GENTAMICIN SULFATE | – | – | 6.25 | – | – | – | 6.25 | 12.5 | – | – | 50 | – | 0.19 | 1.56 | 0.39 | 0.39 | 0.78 | 0.78 | – | –
O=C(Nc1ccc(-c2nc3ccccc3s2)cc1)c1ccc(Br)cc1 | – | – | 25 (≈ 61.1 µM) | 25 (≈ 61.1 µM) | 50 (≈ 122 µM) | 50 (≈ 122 µM) | 50 (≈ 122 µM) | 50 (≈ 122 µM) | 50 (≈ 122 µM) | 50 (≈ 122 µM) | 25 (≈ 61.1 µM) | 25 (≈ 61.1 µM) | 100 (≈ 244 µM) | – | – | – | – | – | – | –
c1ccc(SCc2nc3ccccc3s2)cc1 [2-(PHENYLTHIOMETHYL)BENZO[D]THIAZOLE] | 3.12 (≈ 12.1 µM) | – | – | – | – | – | – | – | – | – | – | – | – | – | – | – | – | – | – | –
OC(Cn1cncn1)(Cn1cncn1)c1ccc(F)cc1F [FLUCONAZOLE] | – | – | – | – | – | – | – | – | – | – | – | 0.78 (≈ 2.55 µM) | – | – | – | – | – | – | – | –
CC1(C)S[C@@H]2[C@H](NC(=O)[C@H](N)c3ccccc3)C(=O)N2[C@H]1C(=O)O.O.O.O [AMPICILLIN TRIHYDRATE] | – | – | – | – | 0.78 | – | – | 400 | 0.78 | 3.12 | – | – | 0.78 | – | – | – | – | – | – | –
O=C(Cc1ccc(F)cc1)Nc1ccc(-c2nc3ccccc3s2)cc1 | – | – | 50 (≈ 138 µM) | 25 (≈ 69 µM) | 50 (≈ 138 µM) | 50 (≈ 138 µM) | 50 (≈ 138 µM) | 50 (≈ 138 µM) | 100 (≈ 276 µM) | 25 (≈ 69 µM) | 25 (≈ 69 µM) | 25 (≈ 69 µM) | 25 (≈ 69 µM) | – | – | – | – | – | – | –
COc1ccc(CC(=O)Nc2ccc(-c3nc4ccccc4s3)cc2)cc1 | – | – | 12.5 (≈ 33.4 µM) | 25 (≈ 66.8 µM) | 12.5 (≈ 33.4 µM) | 12.5 (≈ 33.4 µM) | 50 (≈ 134 µM) | 25 (≈ 66.8 µM) | 50 (≈ 134 µM) | 12.5 (≈ 33.4 µM) | 6.25 (≈ 16.7 µM) | 12.5 (≈ 33.4 µM) | 50 (≈ 134 µM) | – | – | – | – | – | 3 | 3
CC(C)(C)c1ccc(C(=O)Nc2ccc(-c3nc4ccccc4s3)cc2)cc1 | – | – | 12.5 (≈ 32.3 µM) | 25 (≈ 64.7 µM) | 50 (≈ 129 µM) | 25 (≈ 64.7 µM) | 50 (≈ 129 µM) | 50 (≈ 129 µM) | 50 (≈ 129 µM) | 25 (≈ 64.7 µM) | 25 (≈ 64.7 µM) | 12.5 (≈ 32.3 µM) | 100 (≈ 259 µM) | – | – | – | – | – | – | –
